Assay results published in patent US20230228744A1, “DRY EYE DISEASE BIOMARKERS AND THEIR USE FOR TREATMENT” (Aldeyra Therapeutics, Inc., priority 2020, published 2023).

Columns and labels:
[1] = tested on: 4-hydroxynonenal protein adducts (HNE) in tears; assay: Phase 2/3 (TRANQUILITY) run-in cohort, ELISA of HNE-protein adducts in tears before and after dosing; type: in vivo, human; details: single doses of 0.25% reproxalap, average of two doses (Day 1 first dose, Day 2 post chamber), n=9; vehicle: increase of 32 pg/mL (n=7)
Description: [table] Tear RASP levels will be assessed via MMRM of change from pre to post dose on Day 1 and Day 2, with baseline (pre-dose) scores as a covariate, and dose and test article group as factors. Secondary Endpoints: • Visual analog scale eye dryness score assessed over 24 hours after first dose on Day 1, and over 90 minutes in CAE® (Key Secondary Symptom Endpoint) • Ora Calibra® Ocular Discomfort Scale assessed over 24 hours after first dose on Day 1, and over 90 minutes in CAE® • Ocular Discomfort & 4-Symptom Questionnaire assessed over 24 hours after first dose on Day 1, and before and after CAE® • Ora Calibra® Conjunctival Allergen Challenge Ocular Itching Scale assessed over 24 hours after first dose on Day 1, and before and after CAE® • Schirmer's Test change from baseline before and after the final dose on Day 1 • Change in tear RASP levels before and after Dose 1 and 2 on Day 1 and Dose 3 on Day 2. Conjunctival redness over 24 hours after first dose on Day 1. Visit 2 (Day 1, Baseline and In-Office Dosing) • Medical/Medication Update • Adverse Event Query • Visual Acuity (ETDRS) • Slit Lamp Biomicroscopy • Symptom Questionnaires • a. Ocular Discomfort & 4-Symptom Questionnaire • b. […] Ora Calibra® Conjunctival Allergen Challenge Ocular Itching Scale • Slit Lamp Biomicroscopy • Intraocular Pressure • Dilated Exam • Study Exit Data for the run-in cohort was obtained and analyzed. […]

[2] = tested on: RASP (reactive aldehyde species); assay: In vitro RASP elimination by reproxalap; type: biochemical; details: reproxalap at equimolar concentrations
Source text: Regarding the use of tear RASP levels as a clinical endpoint, it is important to note that this is (to date) unprecedented. The FDA has not agreed to the use of RASP before as a clinical endpoint. In this regard, we have reached agreement with the US Food and Drug Administration (FDA) for the use of RASP (reactive aldehyde species) as an objective sign for the treatment of dry eye disease. RASP are pre-cytokine pro-inflammatory mediators that are elevated in the tears of patients with dry eye disease, and correlate with dry eye disease symptoms and signs. […] In in vitro studies, RASP were eliminated within 60 to 90 minutes when exposed to reproxalap at equimolar concentrations. […] The use of RASP as a trial endpoint represents the first novel objective sign for the treatment in dry eye disease in over a decade.

[3] = tested on: patients; assay: Overall clinical safety experience of topical ocular reproxalap; type: in vivo, human

Compound: CC(C)(O)c1nc2ccc(Cl)cc2cc1N [reproxalap, Reproxalap]
- average decline of HNE levels in tears, pre-dose to post-dose [1]: 1018 pg/mL
- time to elimination of RASP [2]: 60 to 90 min
- most commonly reported adverse event in clinical trials ([3]; over 1,100 patients): mild instillation site irritation
- observed safety concerns ([3]; studied in over 1,100 patients): no observed safety concerns
